PMC7606612, “Identification of HMGA2 inhibitors by AlphaScreen-based ultra-high-throughput screening assays” (Scientific Reports, 2020)

Tests used:
[1] = system: human epidermoid carcinoma cell line, A431; assay: Cytotoxicity / cell viability assay (ATPlite); type: cell-based; conditions: human A-431 cells, 48 h
Method: In this study, we also developed a LANCE time-resolved fluorescence energy transfer (TR-FRET) assay as a secondary assay for our screening. The His-tagged HMGA2 and biotinylated oligomer FL814 were linked to Europium-labeled anti-6 × His antibody and APC-labeled streptavidin, respectively. A series of DNA binding studies were performed to determine the optimal conditions for the secondary Assay (Fig. S2). After these experiments, 12.5 nM of FL814 and 62.5 nM of HMGA2 were chosen for the assay, which is the same for the primary assay. The assay tolerated up to 0.25% DMSO without any significant change in signal (Fig. S2c). For a counterscreen assay to exclude those compounds that nonspecifically bind to the protein surface, an AlphaScreen assay of H4 peptide binding to bromodomain-containing protein 4 (BRD4) was adopted (Fig. S2e). Since we are looking for compounds with anti-metastasis or anti-obesity activities, compounds with high levels of cytotoxicity are undesirable. […]
A-431 cells were grown in media (DMEM + 10% FBS + 1 × Penicillin/Streptomycin + 2 mM L-glutamine) at 37 °C in a humidified incubator with 5% CO2 to 70% confluency. […] After 10 min the plates were read using a Perkin Elmer Viewlux multimode plate reader in luminescence mode.

[2] = target: T1, HMGA2 (Mus musculus, UniProt P52927); assay: Isothermal titration calorimetry (ITC), titration into HMGA2; type: binding, mammalian; conditions: for HMGA2 Binding site: number of sites
T1 construct: made in house
T1 sequence (P52927 2-108 limits assumed): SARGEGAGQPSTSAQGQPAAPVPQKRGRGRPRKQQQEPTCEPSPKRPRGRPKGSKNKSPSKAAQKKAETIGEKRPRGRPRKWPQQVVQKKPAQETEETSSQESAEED
Method: (§1) ITC experiments were conducted using a VP-ITC titration calorimeter (MicroCal, Inc., Northampton, MA) interfaced to a PC. Origin 7.0, supplied by the manufacturer was used for data acquisition. […] The heat liberated or absorbed is observed as a peak corresponding to the power required keeping the sample and reference cells at identical temperatures. The peak produced during the injection is converted to heat output by integration and corrected for cell volume and sample concentration. […] The net enthalpy for the titration reaction was determined by subtraction of the component heats of dilution.

[3] = target: T2, HMGA2-DNA interactions (Mus musculus, UniProt P52927); assay: LANCE TR-FRET secondary assay of HMGA2 binding to FL814; parameters: species or system mammalian; concentration or dose not given beside the values; conditions: cherry picked primary hits
T2 construct: made in house
T2 sequence (P52927 2-108 limits assumed): T1 sequence (P52927 2-108 limits assumed)
Method: In this study, we also developed a LANCE time-resolved fluorescence energy transfer (TR-FRET) assay as a secondary assay for our screening. The His-tagged HMGA2 and biotinylated oligomer FL814 were linked to Europium-labeled anti-6 × His antibody and APC-labeled streptavidin, respectively. A series of DNA binding studies were performed to determine the optimal conditions for the secondary Assay (Fig. S2). After these experiments, 12.5 nM of FL814 and 62.5 nM of HMGA2 were chosen for the assay, which is the same for the primary assay. The assay tolerated up to 0.25% DMSO without any significant change in signal (Fig. S2c). For a counterscreen assay to exclude those compounds that nonspecifically bind to the protein surface, an AlphaScreen assay of H4 peptide binding to bromodomain-containing protein 4 (BRD4) was adopted (Fig. S2e). Since we are looking for compounds with anti-metastasis or anti-obesity activities, compounds with high levels of cytotoxicity are undesirable. […] Furthermore, potential DNA-binding compounds, i.e., DNA intercalators, minor groove binders, and DNA alkylating agents, can be identified by analyzing their chemical structures and will be excluded as well.
Using a Labcyte Echo 555 acoustic dispenser 5 nL of DMSO were added to columns 1–4 and 45–48 of a white 1536 well plate, while 5 nL of 2 mM compounds in DMSO were added to columns 5–44. Using a Beckman BioRAPTR FRD bulk reagent dispenser 1 µL of assay buffer (10 mM Tris, 300 mM NaCl and 0.005% Tween 20) was added to columns 1 and 2. Next, 1 µL of assay buffer containing 125 nM HMGA2 was added to columns 3–48 with a Beckman BioRAPTR FRD bulk reagent dispenser. Finally, 1 µL of assay buffer containing 25 nM FL814 was added to every well of the plate using a Beckman BioRAPTR FRD bulk reagent dispenser. The plate was then centrifuged at 200 × g for 1 min. After 30 min at room temperature 1 µL of assay buffer containing 250 nM LANCE Ultra ULight-anti-6xHIS and 1 µL of assay buffer containing 12 nM LANCE Eu-W1024 Streptavidin was dispensed into every well using a Beckman BioRAPTR FRD bulk reagent dispenser. The plates were then centrifuged at 200 × g for 1 min. After 1 h at room temperature the plates were read on a Perkin Elmer Envision multimode plate reader in TR-FRET mode (excitation @340 nm, first emission at @665 nm, second emission at 615 nm).

[4] = system: BTSC#83; assay: Western blotting and qRT-PCR expression analysis, BTSC#83; type: cell-based
Method: (§2) The single-cell suspension was obtained by mechanical disaggregation of the spheres and total proteins were extracted 48 h later, as previously described. After separation by SDS–polyacrylamide gel electrophoresis, proteins were blotted on nitrocellulose membranes (GE Healthcare Europe Gmb) and hybridized with the following antibodies: anti-HMGA1, anti-HMGA2 (Genetex) or affinity-purified anti-HMGA2, anti-α-actin (SantaCruz Biotechnologies). The single-cell suspension was obtained by mechanical disaggregation of the spheres and RNA was extracted 48 h later, by using Direct-zol RNA MiniPrep (Zymo Research). One μg of RNA was retrotranscribed, by using QuantiTect® Reverse Transcription Kit (Qiagen) and qRT-PCR was performed as described. The 2^–ΔΔCt formula was used to calculate the differential gene expression.

[5] = system: BTSC#30p; assay: Western blotting and qRT-PCR expression analysis, BTSC#30p; type: cell-based
Method: as §2

[6] = target: “AT-hook” peptide 3 (ATHP3) (Homo sapiens, UniProt P52926); assay: Isothermal titration calorimetry (ITC), titration into ATHP3; type: binding
Method: as §1

Cc1ccc(C(=O)Nc2ccc(S(=O)(=O)O)c3cc(S(=O)(=O)O)cc(S(=O)(=O)O)c23)cc1NC(=O)c1cccc(NC(=O)Nc2cccc(C(=O)Nc3cc(C(=O)Nc4ccc(S(=O)(=O)O)c5cc(S(=O)(=O)O)cc(S(=O)(=O)O)c45)ccc3C)c2)c1 [suramin]
cytotoxicity [1]: not cytotoxic | –TΔS ([2]; first type of binding sites): 23.3 kJ/mol | HMGA2 Binding site ([2]; first type): three | HMGA2 Binding site ([2]; first type, listed as Suramin): 2.81 | HMGA2 Binding site ([2]; second type): two | HMGA2 Binding site ([2]; second type, listed as Suramin): 2 | − TΔS ([2]; second type of binding sites): 1 kJ/mol | Kd ([2]; second type of binding sites, read-out: HMGA2 Ka (M^−1) (converted)): 23 µM | total of suramin binding sites on HMGA2 ([2]; two types, confirmed by mass spectrometry): five | inhibition of HMGA2-DNA interactions [3]: ≥ 50% | expression of HMGA1 ([4]; Western blotting and qRT-PCR): slightly reduced | expression of HMGA2 ([4]; Western blotting and qRT-PCR): slightly reduced | expression of SNAIL ([4]; qRT-PCR, 100 µM for 48 h): significantly reduced | ID2 expression ([5]; 100 μM for 48 h): induces reduction in ID2 expression | expression of HMGA1 ([5]; Western blotting and qRT-PCR): slightly reduced | expression of HMGA2 ([5]; Western blotting and qRT-PCR): slightly reduced | expression of SNAIL ([5]; qRT-PCR, 100 µM for 48 h): significantly reduced | expression of ID2 ([5]; qRT-PCR, 100 µM for 9 days): significantly reduced | expression of MSI1 ([5]; qRT-PCR, 100 µM for 9 days): significantly reduced | expression of OLIG2 ([5]; qRT-PCR, 100 µM for 9 days): increased | − TΔS [6]: 28.2 kJ/mol | Kd ([6]; first line, read-out: ATHP3 Ka (M^−1) (converted)): 0.0246 µM | ATHP3 Binding site ([6]; number of sites, first line): 0.98
